Experimental data reported in PMC9115709, “TIMP‐1‐expressing breast tumor spheroids for the evaluation of drug penetration and efficacy” (Bioengineering & Translational Medicine, 2021).
Like-named read-outs stand apart in the source and are kept apart here.

Tests used:
[1] = system: MDA-MB-231 cells; test: IC50 in MDA-MB-231 monolayer cells; type: cell-based, human
[2] = system: hASC monocellular spheroids; test: Drug efficacy in hASC monocellular spheroids; type: cell-based, human; conditions: drug at IC50 of MDA-MB-231 monolayer cells, 2 days
Procedure: (§1) To form 3D multicellular tumor spheroids, cells was trypsinized and suspended in the growth media. Stromal cells and breast cancer cells were plated with a density of 5 × 10^3 cells /25 μL into 96‐well plate precoated with poly‐HEMA, respectively, resulting in 1 × 10^4 cells exist per each well. After seeding, the plate was centrifuged for 2 min at 1000 rpm to collect the cells in the center of the well. Fifty microliters of 10% Matrigel® Basement Membrane Matrix (Corning, NY, USA) solution diluted in media was gently added into the plate on ice to prevent matrigel from gelation. Monocellular spheroids were generated by a single culture of stromal cells or breast cancer cells. Cells were seeded with a density of 1 × 10^4 cells per well with 50 μL of 10% matrigel on a poly‐HEMA‐coated plate. Then, the plate with cells and matrigel was centrifuged at 1000 rpm for 2 min, and incubated for 48 h at 37°C with 5% CO2.

[3] = system: MDA-MB-231 monocellular spheroids; test: Drug efficacy in MDA-MB-231 monocellular spheroids; type: cell-based, human; conditions: drug at IC50 of MDA-MB-231 monolayer cells, 2 days
Procedure: as §1

[4] = system: Multicellular spheroids with hASC and MDA-MB-231; test: Permeability value (PV) in the 3D tumor model; conditions: PV = EffA:M - 1/2(EffASC + EffMDA), Equation (4)
Procedure: Therefore, we defined the permeability value (PV) of each drug as the difference in efficacy in multicellular and monocellular spheroids, as determined by Equation (4).
After treating the drug with spheroids for 2 days, the efficacy of the drug was evaluated by CellTiter‐Glo® 3D Cell Viability Assay (Promega). […] (4) PV=EffA:M−1/2EffASC+EffMDA.

[5] = system: Multicellular spheroids with hASC and MDA-MB-231; test: Drug efficacy in hASC and MDA-MB-231 multicellular (A:M) spheroids, CellTiter-Glo 3D; type: cell-based, human; conditions: drug at IC50 of MDA-MB-231 monolayer cells, 2 days
Procedure: as §1

[6] = system: hASC-co-cultured spheroids (A:M); test: Drug efficacy in multicellular tumor spheroids, Real Time-Glo MT Cell Viability Assay; type: cell-based, human; conditions: hASCs transfected with siTIMP-1, 48 h treatment
Procedure: (§2) Spheroids were transferred to an opaque‐walled multiwall plate and analyzed by ATP‐based cell viability assays using Real Time‐Glo™ MT Cell Viability Assay (Promega, Madison, WI, USA) according to the manufacturer's protocol. […] Necrotic cells of spheroids were analyzed in Real Time‐Glo™ Annexin V Necrosis Assay (Promega) following the manufacturer's instructions. Luminescence was measured using a Glomax discovery multi Microplate Reader (Glomax discovery, Promega) with an integration time of 0.25–1.0 s per well.

[7] = system: 3D multicellular tumor spheroids; test: Necrosis in tumor spheroids, Real Time-Glo Annexin V Necrosis Assay; type: cell-based, human; conditions: A:M spheroids with control siRNA or siTIMP-1 hASCs
[8] = system: hASC-co-cultured spheroids (A:M); test: Drug penetration (intrinsic fluorescence) in hASC-co-cultured tumor spheroids; type: cell-based, human; conditions: for Amount of drug inside the spheroids compared to other spheroids: 10 μM, 48 h, fluorescence microscopy, vs hBMSC- or hDF-co-cultured spheroids; for Amount of drug penetrating the spheroids, TIMP-1 silencing vs control siRNA: hASCs transfected with siTIMP-1, 48 h treatment
Procedure: (§3) We next tested whether ECM deposition on the surface of spheroids would affect the penetration of anticancer drugs and their efficacy. Three types of 3D multicellular tumor spheroids were formed and treated with 10 μM doxorubicin, epirubicin, or topotecan, which are chemotherapeutic agents for various tumors, including breast cancer, for an additional 48 h.
as §1, §2

[9] = system: hBMSC-co-cultured spheroids (B:M); test: Drug penetration (intrinsic fluorescence) in hBMSC-co-cultured tumor spheroids; type: cell-based, human; conditions: 10 μM, 48 h, fluorescence microscopy
Procedure: as §3, §1, §2

[10] = system: hDF-co-cultured spheroids (F:M); test: Drug penetration (intrinsic fluorescence) in hDF-co-cultured tumor spheroids; type: cell-based, human; conditions: 10 μM, 48 h, fluorescence microscopy
Procedure: as §3, §1, §2

[11] = Homo sapiens, MDA-MB-231 monolayer cells, read-out: MDA-MB-231 IC50

IC50 [1, 11] [µM] | Experiment's PV #1 [4] | Experiment's PV #2 [4] | Experiment's PV #3 [4] | IC50 ([1]; MDA-MB-231 monolayer cells, read-out: MDA-MB-231 IC50) [µM] | Amount of drug inside the spheroids compared to other spheroids [8] | Amount of drug penetrating the spheroids, TIMP-1 silencing vs control siRNA [8] | Distribution of drug inside the spheroids [9] | Distribution of drug inside the spheroids [10] | SMILES | hASC spheroid Efficacy (EffASC, %) [2] [%] | MDA spheroid Efficacy (EffMDA, %) [3] [%] | A:M spheroid Efficacy (EffA:M, %) [5] [%] | IC50 ([1]; Homo sapiens, MDA-MB-231, read-out: MDA-MB-231 IC50) [µM] | Drug efficacy, TIMP-1-silenced hASCs vs control [6] | Necrotic cells after drug treatment [7]
15.4 |  |  |  |  |  |  |  |  | CC#C[C@]1(O)CC[C@H]2[C@@H]3CCC4=CC(=O)CCC4=C3[C@@H](c3ccc(N(C)C)cc3)C[C@@]21C [Mifepristone] | 91.524 | 46.672 |  |  |  | 
72.3 |  |  |  |  |  |  |  |  | CNCc1ccc(-c2[nH]c3cc(F)cc4c3c2CCNC4=O)cc1 [Rucaparib] | 99.818 | 92.185 |  |  |  | 
87.4 | 0.051 | 0.057 | 0.046 |  |  |  |  |  | Cn1ncnc1[C@H]1c2n[nH]c(=O)c3cc(F)cc(c23)N[C@@H]1c1ccc(F)cc1 [Talazoparib] | 99.742 | 75.508 |  |  |  | 
0.82 |  |  |  |  |  |  |  |  | CC[C@@]1(O)C(=O)OCc2c1cc1n(c2=O)Cc2cc3c([N+](=O)[O-])cccc3nc2-1 [Rubitecan] | 17.266 | 25.373 |  |  |  | 
1.87 | 0.031 | 0.035 | 0.027 |  |  |  |  |  | CCc1c2c(nc3ccc(O)cc13)-c1cc3c(c(=O)n1C2)COC(=O)[C@]3(O)CC [SN38, 7-ethyl-10-hydroxycamptothecin] | 60.449 | 58.491 |  |  |  | 
 |  |  |  |  | significant reduction | significantly increased | distributed throughout | distributed throughout | CC[C@@]1(O)C(=O)OCc2c1cc1n(c2=O)Cc2cc3c(CN(C)C)c(O)ccc3nc2-1 [topotecan] |  |  |  |  | significantly increased | Few necrotic cells
1.57 | -0.096 | -0.017 | -0.056 |  | significant reduction | significantly increased | distributed throughout | distributed throughout | COc1cccc2c1C(=O)c1c(O)c3c(c(O)c1C2=O)C[C@@](O)(C(=O)CO)C[C@@H]3O[C@H]1C[C@H](N)[C@@H](O)[C@H](C)O1 [Epirubicin] | 45.548 | 23.696 |  |  | significantly increased | Few necrotic cells

Continued, compound first:

SMILES | IC50 [1, 11] [µM] | Experiment's PV #1 [4] | Experiment's PV #2 [4] | Experiment's PV #3 [4] | IC50 ([1]; MDA-MB-231 monolayer cells, read-out: MDA-MB-231 IC50) [µM] | Amount of drug inside the spheroids compared to other spheroids [8] | Amount of drug penetrating the spheroids, TIMP-1 silencing vs control siRNA [8] | Distribution of drug inside the spheroids [9] | Distribution of drug inside the spheroids [10] | hASC spheroid Efficacy (EffASC, %) [2] [%] | MDA spheroid Efficacy (EffMDA, %) [3] [%] | A:M spheroid Efficacy (EffA:M, %) [5] [%] | IC50 ([1]; Homo sapiens, MDA-MB-231, read-out: MDA-MB-231 IC50) [µM] | Drug efficacy, TIMP-1-silenced hASCs vs control [6] | Necrotic cells after drug treatment [7]
CC(=O)O[C@H]1C(=O)[C@@]2(C)[C@H]([C@H](OC(=O)c3ccccc3)[C@]3(O)C[C@H](OC(=O)[C@H](O)[C@@H](NC(=O)c4ccccc4)c4ccccc4)C(C)=C1C3(C)C)[C@]1(OC(C)=O)CO[C@@H]1C[C@@H]2O [Paclitaxel] | 2.38 | -0.047 | -0.071 | -0.023 |  |  |  |  |  | 97.404 | 72.690 |  |  |  | 
CN(C)c1nc(N(C)C)nc(N(C)C)n1 [Altretamine] | 64.5 | 0.025 | 0.062 | -0.012 |  |  |  |  |  | 41.038 | 36.883 |  |  |  | 
C/C(=C\c1csc(C)n1)[C@@H]1C[C@@H]2O[C@]2(C)CCC[C@H](C)[C@H](O)[C@@H](C)C(=O)C(C)(C)[C@@H](O)CC(=O)O1 [Patupilone, Patupilone (epothilone-b)] | 33.4 | -0.039 | -0.067 | -0.010 |  |  |  |  |  | 34.560 | 23.781 |  |  |  | 
COC(=O)[C@]12CCC(C)(C)C[C@H]1[C@H]1C(=O)C=C3[C@@]4(C)C=C(C#N)C(=O)C(C)(C)[C@@H]4CC[C@@]3(C)[C@]1(C)CC2 [Bardoxolone-methyl] | 2.16 |  |  |  |  |  |  |  |  | 38.156 | -35.997 |  |  |  | 
CC1(C)[C@@H](O[C@H]2O[C@H](C(=O)O)[C@@H](O)[C@H](O)[C@H]2O[C@@H]2O[C@H](C(=O)O)[C@@H](O)[C@H](O)[C@H]2O)CC[C@]2(C)[C@H]3C(=O)C=C4[C@@H]5C[C@@](C)(C(=O)O)CC[C@]5(C)CC[C@@]4(C)[C@]3(C)CC[C@@H]12 [Ammonium-glycyrrhizinate] |  | -0.114 | -0.075 | -0.095 | 72.1 |  |  |  |  | 33.753 | 40.204 | 27.510 |  |  | 
COc1ccc(N(C)c2nc(C)nc3ccccc23)cc1 [Verubulin] |  | 0.039 | 0.029 | 0.085 |  |  |  |  |  | 24.939 | 5.173 |  | 0.01 |  | 
CC[C@]1(O)C[C@@H]2CN(CCc3c([nH]c4ccccc34)[C@@](C(=O)OC)(c3cc4c(cc3OC)N(C)[C@H]3[C@@](O)(C(=O)OC)[C@H](OC(C)=O)[C@]5(CC)C=CCN6CC[C@]43[C@@H]65)C2)C1 [Vinblastine] | 1.83 | -0.060 | -0.020 | -0.100 |  |  |  |  |  | 25.299 | 9.274 |  |  |  | 
CCCCCOC(=O)Nc1nc(=O)n([C@@H]2O[C@H](C)[C@@H](O)[C@H]2O)cc1F [Capecitabine] | 95 | 0.000 | 0.001 | 0.000 |  |  |  |  |  | 99.895 | 99.873 |  |  |  | 
COc1cc([C@@H]2c3cc4c(cc3[C@@H](O[C@@H]3O[C@@H]5CO[C@@H](C)O[C@H]5[C@H](O)[C@H]3O)[C@H]3COC(=O)[C@H]23)OCO4)cc(OC)c1O [Etoposide] | 32.6 | 0.029 | 0.043 | 0.016 |  |  |  |  |  | 73.263 | 64.897 |  |  |  | 
COc1cccc2c1C(=O)c1c(O)c3c(c(O)c1C2=O)C[C@@](O)(C(=O)CO)C[C@@H]3O[C@H]1C[C@H](N)[C@H](O)[C@H](C)O1 [Doxorubicin, doxorubicin] |  |  |  |  |  | significant reduction | significantly increased | distributed throughout | distributed throughout |  |  |  |  | significantly increased | Few necrotic cells
CO[C@@]12[C@H](COC(N)=O)C3=C(C(=O)C(C)=C(N)C3=O)N1C[C@@H]1N[C@@H]12 [Mitomycin-c] | 17.5 | -0.071 | -0.097 | -0.045 |  |  |  |  |  | 64.309 | 53.401 |  |  |  | 
